biological target: T1, A2AR (hADORA2A-HEK293 cells) (Homo sapiens, UniProt P29274); test: functional cAMP production assay: NECA stimulation of cAMP production and its inhibition by A2AR antagonists; assay type: cell-based; conditions: A2AR-expressing HEK293 cells (hADORA2A-HEK293); NECA at EC80; TR-FRET cAMP readout; read-out: A2AR Potency (IC50, inhibition of NECA-stimulated cAMP production)
T1 construct: expressed in transfected cells; host or cells: HEK293 (hADORA2A-HEK293)
Method: The antagonistic activities of the triazolotriazine derivatives of the present invention were measured in a functional cAMP production assay. The assay consists of NECA stimulation of cAMP production and its inhibition by A2AR antagonists in A2AR-expressing HEK293 cells (hADORA2A-HEK293). All cells were cultured in complete medium at 37° C. in 5% CO2. The cells were detached with pancreatin and collected at 200 g for 5 min. After resuspending the cells in fresh complete medium, the cell viability is counted using the trypan blue exclusion method. […] After the cells were diluted with Hank's buffered saline solution containing HEPES (5 mM), BSA stabilizer (0.1%) and […] Rolipram (10 μM), cells were loaded into white opaque 384-well plates (˜500 cells/well, 10 μl/well) and incubated with test compound at a suitable concentration range (11 concentrations) for 20 min at room temperature. Then the A2A receptor agonist NECA (final concentration=EC80, which was determined in the same experiment slightly earlier) was added to the sample and the mixture was incubated again for 30 min at 37° C. […] The inhibition rate (%) was calculated according to the following formula. The IC50 values were calculated from concentration-inhibition (%) curves after log transformation.

T1 sequence (P29274 whole entry): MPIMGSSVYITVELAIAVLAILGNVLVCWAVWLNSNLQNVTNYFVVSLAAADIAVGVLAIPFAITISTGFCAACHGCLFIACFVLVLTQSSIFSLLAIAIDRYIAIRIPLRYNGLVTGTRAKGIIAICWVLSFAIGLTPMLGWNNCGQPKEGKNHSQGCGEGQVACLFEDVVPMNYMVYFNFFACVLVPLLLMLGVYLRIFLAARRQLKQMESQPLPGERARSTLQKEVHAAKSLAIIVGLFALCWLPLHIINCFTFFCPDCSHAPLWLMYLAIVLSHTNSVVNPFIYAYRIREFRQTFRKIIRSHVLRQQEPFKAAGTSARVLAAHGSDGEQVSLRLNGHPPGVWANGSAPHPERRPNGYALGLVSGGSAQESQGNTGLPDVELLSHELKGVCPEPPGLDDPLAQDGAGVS

Row | SMILES | IC50 [nM]
1 | COCCOCCOCCOCCOCCOCCOCCOCCOCCOc1ccc(CCNc2nc(N)n3nc(-c4ccco4)nc3n2)cc1 [Example 117, N5-(4-(2-(2-(2-(2-(2-(2-(2-(2-(2-Methoxyethoxy)ethoxy)ethoxy)ethoxy)ethoxy)ethoxy)-ethoxy)ethoxy)ethoxy)phenethyl)-2-(furan-2-yl)-[1,2,4]triazolo[1,5-a][1,3,5]triazine-5,7-diamine] | 38
2 | Nc1nc(NCCc2ccc(OCCc3ccccn3)cc2)nc2nc(-c3ccco3)nn12 [Example 90, 2-(Furan-2-yl)-N5-(4-(2-(pyridin-2-yl)ethoxy)phenethyl)-[1,2,4]triazolo[1,5-α][1,3,5]triazine-5,7-diamine] | 10.9
3 | CN(C)[C@H]1CCN(CCOc2ccc(CCNc3nc(N)n4nc(-c5ccco5)nc4n3)cc2)C1 [Example 154, (S)-N5-(4-(2-(3-(Dimethylamino)pyrrolidin-1-yl)ethoxy)phenethyl)-2-(furan-2-yl)-[1,2,4]triazolo[1,5-a][1,3,5]triazine-5,7-diamine] | 25.3
4 | Nc1nc(NCCc2ccc(OCCCc3ccncc3)cc2)nc2nc(-c3ccco3)nn12 [Example 36, 2-(Furan-2-yl)-N5-(4-(3-(pyridin-4-yl)propoxy)phenethyl)-[1,2,4]triazolo[1,5-α][1,3,5]-triazine-5,7-diamine] | 11
5 | Nc1nc(NCCc2ccc(OCCCc3cccnc3)cc2)nc2nc(-c3ccco3)nn12 [Example 40, 2-(Furan-2-yl)-N5-(4-(3-(pyridin-3-yl)propoxy)phenethyl)-[1,2,4]triazolo[1,5-α][1,3,5]-triazine-5,7-diamine] | 11
6 | Nc1nc(NCCc2ccc(OCCOCCF)cc2)nc2nc(-c3ccco3)nn12 [Example 245, N5-(4-(2-(2-Fluoroethoxy)ethoxy)phenethyl)-2-(furan-2-yl)-[1,2,4]triazolo[1,5-a][1,3,5]triazine-5,7-diamine] | 10.1
7 | Nc1nc(NCCc2ccc(OCCN3CCC3)cc2)nc2nc(-c3ccco3)nn12 [Example 98, N5-(4-(2-(Azetidin-1-yl)ethoxy)phenethyl)-2-(furan-2-yl)-[1,2,4]triazolo[1,5-α][1,3,5]triazine-5,7-diamine] | 48.5
8 | CN1CCC(COc2ccc(CCNc3nc(N)n4nc(-c5ccco5)nc4n3)cc2)CC1 [Example 121, N5-(4-((1-Methylpiperidin-4-yl)methoxy)phenethyl)-2-(furan-2-yl)-[1,2,4]triazolo[1,5-a][1,3,5]triazine-5,7-diamine] | 14.1
9 | COCCOCCOCCOCCOc1ccc(CCNc2nc(N)n3nc(-c4ccco4)nc3n2)cc1 [Example 70, N5-(4-(2,5,8,11-Tetraoxatridecan-13-yloxy)phenethyl)-2-(furan-2-yl)-[1,2,4]triazolo[1,5-α][1,3,5]triazine-5,7-diamine] | 19

Now from value to compound:

Row | IC50 [nM] | SMILES
10 | 10.8 | CC(C)(C)C(=O)Nc1ccc(CCNc2nc(N)n3nc(-c4ccco4)nc3n2)cc1 [Example 324, N-(4-(2-((7-Amino-2-(furan-2-yl)-[1,2,4]triazolo[1,5-a][1,3,5]triazin-5-yl)amino)ethyl)-phenyl)pivalamide]
11 | 11.9 | CC(C)(CO)C(=O)Nc1ccc(CCNc2nc(N)n3nc(-c4ccco4)nc3n2)cc1 [Example 325, N-(4-(2-((7-Amino-2-(furan-2-yl)-[1,2,4]triazolo[1,5-a][1,3,5]triazin-5-yl)amino)ethyl)-phenyl)-3-hydroxy-2,2-dimethylpropanamide]
12 | 10.7 | CC(C)(O)C(=O)Nc1ccc(CCNc2nc(N)n3nc(-c4ccco4)nc3n2)cc1 [Example 326, N-(4-(2-((7-Amino-2-(furan-2-yl)-[1,2,4]triazolo[1,5-a][1,3,5]triazin-5-yl)amino)ethyl)-phenyl)-2-hydroxy-2-methylpropanamide]
13 | 25.3 | CN1CCN(CCC(=O)Nc2ccc(CCNc3nc(N)n4nc(-c5ccco5)nc4n3)cc2)CC1 [Example 229, N-(4-(2-((7-Amino-2-(furan-2-yl)-[1,2,4]triazolo[1,5-a][1,3,5]triazin-5-yl)amino)ethyl)-phenyl)-3-(4-methylpiperazin-1-yl)propanamide]
